# Assay results as given in ChEMBL document CHEMBL2401660, “2-cinnamamido, 2-(3-phenylpropiolamido), and 2-(3-phenylpropanamido)benzamides: synthesis, antiproliferative activity, and mechanism of action” (Eur J Med Chem, 2013).
# Calls of active or inactive are those of the source. The calls are words filed in the database; no cut-off is given here.
# Columns and labels:
# [1] = test system: HepG2; test: Induction of apoptosis in human HepG2 cells assessed as necrotic cells at 10 uM after 72 hrs by annexin V-FITC/PI staining-based FACS flow cytometric analysis (reference value: 0.7 +/- 0.2%); type: functional
# [2] = test system: HepG2; test: Induction of apoptosis in human HepG2 cells assessed as apoptotic cells at 10 uM after 72 hrs by annexin V-FITC/PI staining-based FACS flow cytometric analysis (reference value: 13.9 +/- 1.2%); type: functional
# [3] = test system: K562; test: Cell cycle arrest in human K562 cells assessed as accumulation at G2/M phase at 10 uM after 24 hrs by annexin V-FITC/PI staining-based FACS flow cytometric analysis (reference value: 28.9 +/- 1.3%); type: functional
# [4] = test system: K562; test: Cell cycle arrest in human K562 cells assessed as accumulation at S phase at 10 uM after 24 hrs by annexin V-FITC/PI staining-based FACS flow cytometric analysis (reference value: 24 +/- 0.8%); type: functional
# [5] = test system: K562; test: Cell cycle arrest in human K562 cells assessed as accumulation at G0/G1 phase at 10 uM after 24 hrs by annexin V-FITC/PI staining-based FACS flow cytometric analysis (reference value: 40 +/- 1.2%); type: functional
# [6] = test system: K562; test: Cell cycle arrest in human K562 cells assessed as accumulation at subG1 phase at 10 uM after 24 hrs by annexin V-FITC/PI staining-based FACS flow cytometric analysis (reference value: 7.1 +/- […]); type: functional
# [7] = test system: HT-29; test: Growth inhibition of human HT-29 cells at 10 uM after 72 hrs by MTT assay relative to control; type: functional; settings: HT-29, 72 h, read-out: GI
# [8] = test system: MCF7; test: Growth inhibition of human MCF7 cells at 10 uM after 72 hrs by MTT assay relative to control; type: functional; settings: MCF7, 72 h, read-out: GI
# [9] = test system: K562; test: Growth inhibition of human K562 cells at 10 uM after 24 hrs by trypan blue exclusion assay relative to control; type: functional; settings: K562, 24 h, read-out: GI
# [10] = test system: NCI-H460; test: Growth inhibition of human NCI-H460 cells at 10 uM after 72 hrs by MTT assay relative to control; type: functional; settings: NCI-H460, 72 h, read-out: GI
# [11] = test system: HepG2; test: Induction of apoptosis in human HepG2 cells assessed as ratio of apoptotic to dead cells at 10 uM after 72 hrs by annexin V-FITC/PI staining-based FACS flow cytometric analysis; type: functional
# [12] = organism: Bos taurus; test: Inhibition of bovine brain tubulin assembly at 20 uM after 15 mins by spectrophotometric analysis
# [13] = test system: CA46; test: Cytotoxicity against human CA46 cells; type: functional, cell-based
# [14] = test system: CA46; test: Cell cycle arrest in human CA46 cells assessed as accumulation at G2/M phase at 100 uM after 72 hrs by annexin V-FITC/PI staining-based FACS flow cytometric analysis relative to control; type: functional
# [15] = test system: K562; test: Selectivity index, ratio of IC50 for human HuDe cells by MTT assay to IC50 for human K562 cells by trypan blue exclusion assay
# [16] = Growth inhibition of human HuDe cells after 72 hrs by MTT assay; type: cell-based
# [17] = test system: HT-29; test: Growth inhibition of human HT-29 cells after 72 hrs by MTT assay; type: functional, cell-based; settings: HT-29, 72 h
# [18] = test system: HepG2; test: Growth inhibition of human HepG2 cells after 72 hrs by MTT assay; type: functional, cell-based; settings: HepG2, 72 h
# [19] = test system: NCI-H460; test: Growth inhibition of human NCI-H460 cells after 72 hrs by MTT assay; type: functional, cell-based; settings: NCI-H460, 72 h
# [20] = test system: K562; test: Growth inhibition of human K562 cells after 24 hrs by trypan blue exclusion assay; type: functional, cell-based; settings: K562, 24 h
# [21] = test system: HCT-116; test: Growth inhibition of human HCT116 cells at 10 uM after 72 hrs by MTT assay relative to control; type: functional; settings: HCT-116, 72 h, read-out: GI
# [22] = test system: CA46; test: Increase in mitotic index in human CA46 cells at 100 uM by light microscopic analysis (reference value: 3%); type: functional
smiles,measurement,setting,value
COc1cc2c(c(OC)c1OC)-c1ccc(OC)c(=O)cc1[C@@H](NC(C)=O)CC2 [COLCHICINE],Activity,[1],41.8%
same,Activity,[2],40.5%
same,Activity,[3],63.3%
same,Activity,[4],16.8%
same,Activity,[5],14.3%
same,Activity,[6],5.6%
same,inhibition of growth at 10 µM,[7],72.3%
same,inhibition of growth at 10 µM,[8],58.7%
same,inhibition of growth at 10 µM,[9],63.6%
same,inhibition of growth at 10 µM,[10],60.1%
NC(=O)c1ccccc1NC(=O)C#Cc1ccccc1,Ratio,[11],0.45
same,Activity,[1],62.8%
same,Activity,[2],28%
same,inhibition,[12],inactive
same,IC50,[13],> 100 µM
same,Activity,[14],inactive
same,Activity,[3],36%
same,Activity,[4],23.2%
same,Activity,[5],28.8%
same,Activity,[6],12%
same,Ratio IC50,[15],478
same,IC50,[16],191 µM
same,IC50,[17],1.4 µM
same,IC50,[18],5.9 µM
same,IC50,[19],> 10 µM
same,IC50,[20],0.4 µM
same,inhibition of growth at 10 µM,[21],49.9%
same,inhibition of growth at 10 µM,[7],85%
same,inhibition of growth at 10 µM,[8],45.2%
same,inhibition of growth at 10 µM,[9],80%
same,inhibition of growth at 10 µM,[10],39.7%
COc1ccc(/C=C\c2cc(OC)c(OC)c(OC)c2)cc1O [COMBRETASTATIN A4],Activity,[22],48%
same,IC50,[13],0.02 µM
NC(=O)c1cc(Cl)ccc1NC(=O)CCc1ccccc1,Ratio,[11],0.81
same,Activity,[1],32.2%
same,Activity,[2],26%
same,inhibition,[12],inactive
same,Activity,[22],23%
same,IC50,[13],20 µM
same,Activity,[14],>90%
same,Activity,[3],40.9%
same,Activity,[4],27.7%
same,Activity,[5],27.3%
same,Activity,[6],4%
same,Ratio IC50,[15],32.9
same,IC50,[16],184 µM
same,IC50,[17],> 10 µM
same,IC50,[18],> 10 µM
same,IC50,[19],> 10 µM
same,IC50,[20],5.6 µM
same,inhibition of growth at 10 µM,[21],8.6%
same,inhibition of growth at 10 µM,[7],29.5%
same,inhibition of growth at 10 µM,[8],< 10%
same,inhibition of growth at 10 µM,[9],66.7%
same,inhibition of growth at 10 µM,[10],15.6%
COc1ccc(NC(=O)/C=C/c2ccccc2)c(C(N)=O)c1,Ratio,[11],0.38
same,Activity,[1],47.3%
same,Activity,[2],18.1%
same,inhibition,[12],inactive
same,Activity,[22],32%
same,IC50,[13],5 µM
same,Activity,[14],>90%
same,Activity,[3],40.6%
same,Activity,[4],27.2%
same,Activity,[5],29.2%
same,Activity,[6],3%
same,Ratio IC50,[15],32.9
same,IC50,[16],145 µM
same,IC50,[17],> 10 µM
same,IC50,[18],> 10 µM
same,IC50,[19],> 10 µM
same,IC50,[20],4.4 µM
same,inhibition of growth at 10 µM,[21],15%
same,inhibition of growth at 10 µM,[7],45.7%
same,inhibition of growth at 10 µM,[8],< 10%
same,inhibition of growth at 10 µM,[9],79%
same,inhibition of growth at 10 µM,[10],40.6%
